According to article PMC4620497 (Scientific Reports, 2015):
pKd: −log10 of the molar value.

Tests used:
PIK3C2G = biological target: T1, PIK3C2G (Homo sapiens, UniProt O75747); experiment: KINOMEscan panel screen; format: binding; conditions: read-out: Percent Control(%)
T1 construct: purchased DiscoveRx KINOMEscan (Ambit Biosciences)

ULK2 = biological target: T2, ULK2 (Homo sapiens, UniProt Q8IYT8); experiment: KINOMEscan panel screen; format: binding; conditions: read-out: Percent Control(%)
T2 construct: purchased DiscoveRx KINOMEscan (Ambit Biosciences)

JNK2 = biological target: T3, JNK2 (Homo sapiens, UniProt P45984); experiment: KINOMEscan panel screen; format: binding; conditions: read-out: Percent Control(%)
T3 construct: purchased DiscoveRx KINOMEscan (Ambit Biosciences)

WNK1 = biological target: T4, WNK1 (Homo sapiens, UniProt Q9H4A3); experiment: KINOMEscan panel screen; format: binding; conditions: read-out: Percent Control(%)
T4 construct: purchased DiscoveRx KINOMEscan (Ambit Biosciences)

MET(Y1235D) = biological target: T5, MET(Y1235D) (Homo sapiens, UniProt P08581, Y1235D); experiment: KINOMEscan panel screen; format: binding; conditions: read-out: Percent Control(%)
T5 construct: purchased DiscoveRx KINOMEscan (Ambit Biosciences)

VEGFR2 [1] = biological target: T6, VEGFR2 (Homo sapiens, UniProt P35968); experiment: KINOMEscan kinase binding assay (Kd)
T6 construct: DNA tag (qPCR read-out); purchased Ambit Biosciences (KINOMEscan service)
T6 sequence (P35968 20-1356): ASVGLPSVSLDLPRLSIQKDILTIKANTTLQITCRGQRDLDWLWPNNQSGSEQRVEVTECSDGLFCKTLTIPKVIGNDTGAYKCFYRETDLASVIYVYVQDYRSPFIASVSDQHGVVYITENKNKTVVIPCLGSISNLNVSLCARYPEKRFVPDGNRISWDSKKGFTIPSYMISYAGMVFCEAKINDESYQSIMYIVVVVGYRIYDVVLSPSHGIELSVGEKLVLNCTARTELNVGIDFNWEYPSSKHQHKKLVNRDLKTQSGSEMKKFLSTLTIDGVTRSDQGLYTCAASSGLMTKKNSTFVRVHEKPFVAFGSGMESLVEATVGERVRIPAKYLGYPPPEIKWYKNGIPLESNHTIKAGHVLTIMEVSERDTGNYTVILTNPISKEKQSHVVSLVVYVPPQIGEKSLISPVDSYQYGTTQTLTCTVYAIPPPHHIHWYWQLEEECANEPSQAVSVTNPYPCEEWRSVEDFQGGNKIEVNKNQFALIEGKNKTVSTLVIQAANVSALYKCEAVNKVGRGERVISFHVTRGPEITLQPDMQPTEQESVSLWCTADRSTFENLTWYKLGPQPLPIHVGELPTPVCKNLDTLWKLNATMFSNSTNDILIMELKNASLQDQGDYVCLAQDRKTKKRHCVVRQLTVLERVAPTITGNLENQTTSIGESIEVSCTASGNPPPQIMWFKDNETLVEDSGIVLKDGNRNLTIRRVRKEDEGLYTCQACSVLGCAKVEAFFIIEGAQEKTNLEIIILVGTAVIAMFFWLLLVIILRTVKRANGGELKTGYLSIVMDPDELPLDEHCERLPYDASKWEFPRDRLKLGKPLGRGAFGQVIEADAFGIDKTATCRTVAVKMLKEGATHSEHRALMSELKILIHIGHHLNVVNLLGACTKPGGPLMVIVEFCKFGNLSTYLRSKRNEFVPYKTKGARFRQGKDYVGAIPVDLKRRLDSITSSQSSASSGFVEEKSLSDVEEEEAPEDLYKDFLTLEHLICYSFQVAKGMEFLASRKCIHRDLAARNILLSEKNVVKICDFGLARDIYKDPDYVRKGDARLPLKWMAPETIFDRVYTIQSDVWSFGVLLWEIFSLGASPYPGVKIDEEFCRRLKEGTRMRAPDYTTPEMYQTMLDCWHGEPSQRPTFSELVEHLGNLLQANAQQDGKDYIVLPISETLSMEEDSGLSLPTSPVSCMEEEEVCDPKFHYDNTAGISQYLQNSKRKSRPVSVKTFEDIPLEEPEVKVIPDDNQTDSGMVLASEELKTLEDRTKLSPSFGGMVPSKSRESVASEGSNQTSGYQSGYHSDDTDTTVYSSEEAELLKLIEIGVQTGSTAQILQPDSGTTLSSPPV

YANK2 = biological target: T7, YANK2 (Homo sapiens, UniProt Q9NY57); experiment: KINOMEscan panel screen; format: binding; conditions: read-out: Percent Control(%)
T7 construct: purchased DiscoveRx KINOMEscan (Ambit Biosciences)
T7 sequence (Q9NY57 whole entry): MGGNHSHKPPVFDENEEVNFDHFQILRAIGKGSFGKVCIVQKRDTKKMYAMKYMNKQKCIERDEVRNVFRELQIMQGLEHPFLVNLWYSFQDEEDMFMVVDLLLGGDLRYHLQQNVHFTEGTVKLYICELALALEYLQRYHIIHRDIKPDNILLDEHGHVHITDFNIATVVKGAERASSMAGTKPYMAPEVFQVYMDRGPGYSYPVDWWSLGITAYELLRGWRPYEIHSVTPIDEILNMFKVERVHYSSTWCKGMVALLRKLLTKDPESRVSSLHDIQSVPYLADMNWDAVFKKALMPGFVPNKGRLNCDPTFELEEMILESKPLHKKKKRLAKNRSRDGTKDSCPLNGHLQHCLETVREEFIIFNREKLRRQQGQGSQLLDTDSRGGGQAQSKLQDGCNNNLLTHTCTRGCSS

VEGFR2 [2] = biological target: T6, VEGFR2; experiment: KINOMEscan panel screen; format: binding; conditions: read-out: Percent Control(%)
PFTK1 = biological target: T8, PFTK1 (Homo sapiens, UniProt O94921); experiment: KINOMEscan panel screen; format: binding; conditions: read-out: Percent Control(%)
T8 construct: purchased DiscoveRx KINOMEscan (Ambit Biosciences)

EPHA6 = biological target: T9, EPHA6 (Homo sapiens, UniProt Q9UF33); experiment: KINOMEscan panel screen; format: binding; conditions: read-out: Percent Control(%)
T9 construct: purchased DiscoveRx KINOMEscan (Ambit Biosciences)

MELK = biological target: T10, MELK (Homo sapiens, UniProt Q14680); experiment: KINOMEscan panel screen; format: binding; conditions: read-out: Percent Control(%)
T10 construct: purchased DiscoveRx KINOMEscan (Ambit Biosciences)

YANK3 = biological target: T11, YANK3 (Homo sapiens, UniProt Q86UX6); experiment: KINOMEscan panel screen; format: binding; conditions: read-out: Percent Control(%)
T11 construct: purchased DiscoveRx KINOMEscan (Ambit Biosciences)

MAPKAPK2 = biological target: T12, MAPKAPK2 (Homo sapiens, UniProt P49137); experiment: KINOMEscan panel screen; format: binding; conditions: read-out: Percent Control(%)
T12 construct: purchased DiscoveRx KINOMEscan (Ambit Biosciences)

[3] = biological target: T13, ABL1(Y253F)-phosphorylated (Homo sapiens, UniProt P00519, Y253F); experiment: KINOMEscan panel screen; format: binding; conditions: read-out: Percent Control(%)
T13 construct: purchased DiscoveRx KINOMEscan (Ambit Biosciences)

NEK2 = biological target: T14, NEK2 (Homo sapiens, UniProt P51955); experiment: KINOMEscan panel screen; format: binding; conditions: read-out: Percent Control(%)
T14 construct: purchased DiscoveRx KINOMEscan (Ambit Biosciences)
T14 sequence (P51955 whole entry): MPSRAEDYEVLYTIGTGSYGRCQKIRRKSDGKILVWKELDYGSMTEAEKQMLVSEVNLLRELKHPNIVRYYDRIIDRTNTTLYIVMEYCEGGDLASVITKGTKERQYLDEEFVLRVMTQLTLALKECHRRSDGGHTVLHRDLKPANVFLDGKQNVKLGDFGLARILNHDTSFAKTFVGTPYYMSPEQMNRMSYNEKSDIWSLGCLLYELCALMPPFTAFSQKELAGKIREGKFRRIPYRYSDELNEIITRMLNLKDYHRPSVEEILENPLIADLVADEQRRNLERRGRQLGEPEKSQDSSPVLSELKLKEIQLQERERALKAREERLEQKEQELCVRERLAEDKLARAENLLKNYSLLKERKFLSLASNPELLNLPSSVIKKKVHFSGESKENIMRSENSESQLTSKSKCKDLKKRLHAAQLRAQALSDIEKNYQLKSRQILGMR

TYRO3 = biological target: T15, TYRO3 (Homo sapiens, UniProt Q06418); experiment: KINOMEscan panel screen; format: binding; conditions: read-out: Percent Control(%)
T15 construct: purchased DiscoveRx KINOMEscan (Ambit Biosciences)
T15 sequence (Q06418 41-890): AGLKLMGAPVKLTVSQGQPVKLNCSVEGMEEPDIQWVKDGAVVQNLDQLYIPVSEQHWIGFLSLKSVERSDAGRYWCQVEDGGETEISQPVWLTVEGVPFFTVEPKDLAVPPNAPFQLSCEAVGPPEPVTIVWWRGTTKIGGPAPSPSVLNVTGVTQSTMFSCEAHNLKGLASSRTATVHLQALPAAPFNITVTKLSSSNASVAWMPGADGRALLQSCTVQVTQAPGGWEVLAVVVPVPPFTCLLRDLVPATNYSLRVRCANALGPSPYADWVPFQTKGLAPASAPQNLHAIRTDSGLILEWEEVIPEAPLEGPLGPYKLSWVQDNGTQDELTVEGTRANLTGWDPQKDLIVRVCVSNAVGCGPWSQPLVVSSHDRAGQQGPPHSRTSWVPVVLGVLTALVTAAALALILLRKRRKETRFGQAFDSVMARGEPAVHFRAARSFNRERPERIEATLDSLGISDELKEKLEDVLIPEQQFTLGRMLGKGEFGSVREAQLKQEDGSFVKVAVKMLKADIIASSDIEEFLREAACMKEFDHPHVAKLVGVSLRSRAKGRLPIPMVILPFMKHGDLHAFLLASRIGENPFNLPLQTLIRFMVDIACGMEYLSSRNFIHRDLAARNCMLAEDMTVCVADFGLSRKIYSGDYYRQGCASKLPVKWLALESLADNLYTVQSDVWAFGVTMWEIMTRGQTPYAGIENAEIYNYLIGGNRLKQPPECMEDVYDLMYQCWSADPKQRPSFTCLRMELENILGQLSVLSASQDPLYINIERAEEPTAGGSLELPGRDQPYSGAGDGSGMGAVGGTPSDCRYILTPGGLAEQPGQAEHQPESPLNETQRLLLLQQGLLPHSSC

ROCK2 = biological target: T16, ROCK2 (Homo sapiens, UniProt O75116); experiment: KINOMEscan panel screen; format: binding; conditions: read-out: Percent Control(%)
T16 construct: purchased DiscoveRx KINOMEscan (Ambit Biosciences)

BMPR1B = biological target: T17, BMPR1B (Homo sapiens, UniProt O00238); experiment: KINOMEscan panel screen; format: binding; conditions: read-out: Percent Control(%)
T17 construct: purchased DiscoveRx KINOMEscan (Ambit Biosciences)
T17 sequence (O00238 14-502): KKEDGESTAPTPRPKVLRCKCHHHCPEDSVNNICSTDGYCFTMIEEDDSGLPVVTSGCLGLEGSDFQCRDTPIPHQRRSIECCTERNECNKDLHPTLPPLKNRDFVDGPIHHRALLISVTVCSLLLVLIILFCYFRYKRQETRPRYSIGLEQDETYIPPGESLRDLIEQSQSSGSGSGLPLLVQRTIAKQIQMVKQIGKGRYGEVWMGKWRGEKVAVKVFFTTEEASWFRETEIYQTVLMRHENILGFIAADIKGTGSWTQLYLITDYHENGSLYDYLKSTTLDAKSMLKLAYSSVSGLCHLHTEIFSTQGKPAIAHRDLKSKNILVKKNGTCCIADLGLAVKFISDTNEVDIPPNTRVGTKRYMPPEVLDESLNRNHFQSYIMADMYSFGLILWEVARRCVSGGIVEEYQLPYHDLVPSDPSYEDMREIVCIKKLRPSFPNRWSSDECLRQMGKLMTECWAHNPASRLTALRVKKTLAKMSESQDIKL

T1 sequence (O75747 whole entry): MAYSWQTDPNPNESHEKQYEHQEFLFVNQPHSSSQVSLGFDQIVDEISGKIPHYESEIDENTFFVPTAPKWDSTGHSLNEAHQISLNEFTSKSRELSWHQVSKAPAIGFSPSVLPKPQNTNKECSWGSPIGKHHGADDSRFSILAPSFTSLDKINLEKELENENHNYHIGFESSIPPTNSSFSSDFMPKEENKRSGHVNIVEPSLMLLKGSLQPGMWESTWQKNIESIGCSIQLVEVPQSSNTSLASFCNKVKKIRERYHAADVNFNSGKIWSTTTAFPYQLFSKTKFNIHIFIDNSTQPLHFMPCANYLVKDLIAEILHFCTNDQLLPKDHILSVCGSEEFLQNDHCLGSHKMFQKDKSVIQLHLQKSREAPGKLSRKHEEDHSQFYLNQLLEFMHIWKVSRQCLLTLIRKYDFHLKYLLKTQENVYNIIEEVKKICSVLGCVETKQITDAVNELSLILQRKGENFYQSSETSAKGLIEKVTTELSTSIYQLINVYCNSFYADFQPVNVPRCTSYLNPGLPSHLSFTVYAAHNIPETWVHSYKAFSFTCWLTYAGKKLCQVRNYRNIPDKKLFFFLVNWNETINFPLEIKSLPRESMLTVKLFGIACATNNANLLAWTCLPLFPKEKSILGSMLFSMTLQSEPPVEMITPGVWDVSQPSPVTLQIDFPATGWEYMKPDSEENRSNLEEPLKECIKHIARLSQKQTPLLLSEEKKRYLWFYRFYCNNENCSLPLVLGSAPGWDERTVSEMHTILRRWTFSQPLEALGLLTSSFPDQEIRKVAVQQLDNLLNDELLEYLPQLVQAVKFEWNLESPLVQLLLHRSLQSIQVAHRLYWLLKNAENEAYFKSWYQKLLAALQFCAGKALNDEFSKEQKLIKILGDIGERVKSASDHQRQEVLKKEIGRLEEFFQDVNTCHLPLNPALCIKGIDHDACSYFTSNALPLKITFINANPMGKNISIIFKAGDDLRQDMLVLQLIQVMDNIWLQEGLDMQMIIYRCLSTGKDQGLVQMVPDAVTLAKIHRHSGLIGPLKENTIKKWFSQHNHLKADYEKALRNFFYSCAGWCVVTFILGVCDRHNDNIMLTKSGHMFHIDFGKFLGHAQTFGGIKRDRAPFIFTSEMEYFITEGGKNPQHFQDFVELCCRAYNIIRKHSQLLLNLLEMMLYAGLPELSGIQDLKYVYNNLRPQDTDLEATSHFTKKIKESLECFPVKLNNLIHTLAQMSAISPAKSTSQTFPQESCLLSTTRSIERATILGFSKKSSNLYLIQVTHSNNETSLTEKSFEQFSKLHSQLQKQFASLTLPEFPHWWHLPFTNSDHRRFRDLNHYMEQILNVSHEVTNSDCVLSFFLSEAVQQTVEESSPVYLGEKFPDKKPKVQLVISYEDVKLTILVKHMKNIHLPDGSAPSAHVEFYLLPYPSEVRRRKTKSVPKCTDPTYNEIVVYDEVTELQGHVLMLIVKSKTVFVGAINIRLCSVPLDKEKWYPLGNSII

CC(C)(C)c1cc(NC(=O)Nc2ccc(Oc3ncnc4[nH]ncc34)c(F)c2)no1 [SKLB-677, 1-(4-(1H-pyrazolo[3,4-d]pyrimidin-4-yloxy)-3-fluorophenyl)-3-(5-tert-butylisoxazol-3-yl)urea]
remaining binding at 10 µM (PIK3C2G): 100%
remaining binding at 10 µM (ULK2): 97%
remaining binding at 10 µM (JNK2): 2%
remaining binding at 10 µM (WNK1): 100%
remaining binding at 10 µM (MET(Y1235D)): 5.4%
pKd (VEGFR2 [1]): 7.96
remaining binding at 10 µM (YANK2): 50%
remaining binding at 10 µM (VEGFR2 [2]): 0.1%
remaining binding at 10 µM (PFTK1): 0.05%
remaining binding at 10 µM (EPHA6): 0%
remaining binding at 10 µM (MELK): 56%
remaining binding at 10 µM (YANK3): 97%
remaining binding at 10 µM (MAPKAPK2): 100%
remaining binding at 10 µM [3]: 10%
remaining binding at 10 µM (NEK2): 100%
remaining binding at 10 µM (TYRO3): 0.35%
remaining binding at 10 µM (ROCK2): 66%
remaining binding at 10 µM (BMPR1B): 88%
